Publication PMC10708259 (Molecules, 2023)

Legend:
[1] = target: T1, human μ-opioid receptor (OPRM1) (Homo sapiens, UniProt P35372); assay: cell-based; type: cell-based; settings: for EC50: MOR Agonist EC50 ± SEM; for Emax: read-out: MOR Agonist %Emax ± SEM
T1 construct: host or cells: cAMP Hunter CHO-K1

[2] = target: human δ-opioid receptor (OPRD1) (Homo sapiens, UniProt P41143); assay: Forskolin-induced cAMP accumulation assay, DOR agonist mode; settings: for Emax: CHO-K1, read-out: DOR Agonist %Emax ± SEM; for DOR efficacy in words: cAMP assay
[3] = target: human κ-opioid receptor (OPRK1) (Homo sapiens, UniProt P41145); assay: Forskolin-induced cAMP accumulation assay, KOR agonist mode; settings: for Emax: CHO-K1, read-out: KOR Agonist %Emax ± SEM
Sequence of human κ-opioid receptor (OPRK1) (P41145 whole entry): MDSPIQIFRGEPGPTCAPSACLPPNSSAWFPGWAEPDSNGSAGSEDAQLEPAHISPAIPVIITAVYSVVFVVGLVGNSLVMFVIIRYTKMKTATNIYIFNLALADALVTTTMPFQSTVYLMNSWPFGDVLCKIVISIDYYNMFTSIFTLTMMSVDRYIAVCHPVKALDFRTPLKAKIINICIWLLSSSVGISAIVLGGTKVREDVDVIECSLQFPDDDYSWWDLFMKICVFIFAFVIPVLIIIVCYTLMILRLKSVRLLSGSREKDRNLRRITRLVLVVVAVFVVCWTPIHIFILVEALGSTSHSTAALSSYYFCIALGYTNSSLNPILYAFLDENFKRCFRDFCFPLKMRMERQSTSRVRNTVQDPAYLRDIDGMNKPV

Sequence of human δ-opioid receptor (OPRD1) (P41143 whole entry): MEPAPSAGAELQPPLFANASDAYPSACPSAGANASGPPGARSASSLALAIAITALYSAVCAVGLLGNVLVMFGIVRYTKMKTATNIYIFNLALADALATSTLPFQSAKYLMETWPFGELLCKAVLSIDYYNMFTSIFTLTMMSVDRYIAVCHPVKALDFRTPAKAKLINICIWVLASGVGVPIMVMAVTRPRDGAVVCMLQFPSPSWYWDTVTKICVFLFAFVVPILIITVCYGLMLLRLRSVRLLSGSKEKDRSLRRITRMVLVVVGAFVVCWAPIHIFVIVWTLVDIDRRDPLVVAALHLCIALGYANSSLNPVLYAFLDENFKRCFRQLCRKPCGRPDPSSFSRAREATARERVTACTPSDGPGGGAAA
T1 sequence (P35372 whole entry): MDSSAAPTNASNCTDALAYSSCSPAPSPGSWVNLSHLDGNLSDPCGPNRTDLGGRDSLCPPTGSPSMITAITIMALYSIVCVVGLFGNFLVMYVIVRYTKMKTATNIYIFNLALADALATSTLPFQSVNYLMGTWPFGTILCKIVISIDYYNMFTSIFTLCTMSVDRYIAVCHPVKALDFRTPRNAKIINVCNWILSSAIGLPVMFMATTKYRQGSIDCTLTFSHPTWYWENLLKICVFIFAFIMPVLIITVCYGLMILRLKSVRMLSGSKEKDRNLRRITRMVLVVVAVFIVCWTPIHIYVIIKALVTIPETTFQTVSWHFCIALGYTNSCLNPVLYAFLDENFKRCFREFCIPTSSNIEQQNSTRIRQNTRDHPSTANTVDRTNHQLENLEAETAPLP

Row | SMILES | MOR agonist potency / efficacy in words [1] | EC50 [1] [nM] | Emax [1] [%] | EC50 [2] [nM] | Emax [2] [%] | DOR efficacy in words [2] | EC50 [3] [nM] | Emax [3] [%] | MOR potency relative to morphine (times more potent than morphine) [1]
1 | CC1C2Cc3ccc(O)cc3C1(C)CCN2CC=Cc1ccccc1 [Compound 25, (1R,5R,9R)-6,11-Dimethyl-3-(cinnamyl)-1,2,3,4,5,6-hexahydro-2,6-methanobenzo[d]azocin-8-ol] | little or no potency | 244 | 101 |  |  |  |  |  | 
2 | CC1C2Cc3ccc(O)cc3C1(C)CCN2CCc1ccc([N+](=O)[O-])cc1 [Compound 3, (1R,5R,9R)-6,11-Dimethyl-3-(4-nitrophenethyl)-1,2,3,4,5,6-hexahydro-2,6-methanobenzo[d]azocin-8-ol] |  | 0.3 | 101 | 2.7 ± 1 | 88 | partial DOR agonists | 13 ± 0.5 | 46 | 
3 | C=C1c2ccc(O)cc2[C@]2(C)CCN(CCc3ccccc3)[C@H]1[C@@H]2C [(−)-38, (2S,6R,11R)-6,11-Dimethyl-1-methylene-3-phenethyl-1,2,3,4,5,6-hexahydro-2,6-methanobenzo[d]azocin-8-ol] |  | 0.23 | 101 | 4.9 ± 3 | 89 |  | 9.5 ± 2 | 57 ± 45.6 | about 25 times
4 | COc1ccc(CCN2CCC3(C)c4cc(O)ccc4CC2C3C)cc1 [Compound 18, (1R,5R,9R)-6,11-Dimethyl-3-(4-methoxyphenethyl)-1,2,3,4,5,6-hexahydro-2,6-methanobenzo[d]azocin-8-ol] |  | 1.2 | 103 | 4 ± 1 | 87 |  | 9 ± 2 | 89 | 
5 | CC1C2Cc3ccc(O)cc3C1(C)CCN2CCc1ccc(Br)cc1 [Compound 12, (1R,5R,9R)-6,11-Dimethyl-3-(4-bromophenethyl)-1,2,3,4,5,6-hexahydro-2,6-methanobenzo[d]azocin-8-ol] |  | 0.7 | 102 | 1.1 ± 0.3 | 89 | partial DOR agonists | 5 ± 2 | 100 | 
6 | C[C@H]1[C@H]2Cc3ccc(O)cc3[C@]1(C)CCN2CCCc1ccccc1 [Compound 24, (1R,5R,9R)-6,11-Dimethyl-3-(phenylpropyl)-1,2,3,4,5,6-hexahydro-2,6-methanobenzo[d]azocin-8-ol] | little or no potency | 69 | 101 |  |  |  |  |  | 
7 | CC1C2Cc3ccc(O)cc3C1(C)CCN2CCc1ccccc1Br [Compound 14, (1R,5R,9R)-6,11-Dimethyl-3-(2-bromophenethyl)-1,2,3,4,5,6-hexahydro-2,6-methanobenzo[d]azocin-8-ol] |  | 2 | 101 | 13 ± 2 | 89 |  | 16 ± 2 | 80 | 
8 | CC1C2Cc3ccc(O)cc3C1(C)CCN2CCc1ccccc1C(F)(F)F [Compound 11, (1R,5R,9R)-6,11-Dimethyl-3-(2-trifluoromethylphenethyl)-1,2,3,4,5,6-hexahydro-2,6-methanobenzo[d]azocin-8-ol] |  | 6 | 102 | 24 ± 5 | 77 |  | 36 ± 3 | 72 | 
9 | CC1C2Cc3ccc(O)cc3C1(C)CCN2CCc1cccc([N+](=O)[O-])c1 [Compound 4, (1R,5R,9R)-6,11-Dimethyl-3-(3-nitrophenethyl)-1,2,3,4,5,6-hexahydro-2,6-methanobenzo[d]azocin-8-ol] |  | 26 | 71 |  |  |  |  |  | 
10 | C[C@H]1[C@H]2Cc3ccc(O)cc3[C@]1(C)CCN2CCCc1ccc([N+](=O)[O-])cc1 [Compound 31, (1R,5R,9R)-6,11-Dimethyl-3-(3-(4-nitrophenyl)propyl)-1,2,3,4,5,6-hexahydro-2,6-methanobenzo[d]azocin-8-ol] | little or no potency | ≥ 10000 |  |  |  |  |  |  | 
11 | CC1C2Cc3ccc(O)cc3C1(C)CCN2CCc1cccc(C(F)(F)F)c1 [Compound 10, (1R,5R,9R)-6,11-Dimethyl-3-(3-trifluoromethylphenethyl)-1,2,3,4,5,6-hexahydro-2,6-methanobenzo[d]azocin-8-ol] |  | 167 | 63 |  |  |  |  |  | 
